Data reported in article PMC10682951, “Structure-function and rational design of a spider toxin Ssp1a at human voltage-gated sodium channel subtypes” (Frontiers in Pharmacology, 2023).
Bridge positions count the residues as written; N and C are the ends. Peptide text beside a SMILES is read from it.

Legend:
Assay type in all cases: cell-based
[1] = molecular target: T1, hNaV1.2 (Homo sapiens, UniProt Q99250); assay: Automated whole-cell patch-clamp (QPatch 16X), hNaV1.2; settings: for IC50: HEK293 cells expressing hNaV1.2 + β1 subunit, QPatch 16X, holding −80 mV, step to 0 mV, peptide incubated 2 min, 0.1% BSA, mean, SEM and n (2-7); for Loss (reduction) in potency vs rSsp1a at hNaV1.2: relative to wild type rSsp1a
T1 construct: host or cells: HEK293
Method in brief: (§1)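 HEK293 cells stably expressing the channel (human subtypes with β1 subunit), held at −80 mV; 2 min peptide pre-incubation, then 20 ms steps to 0 mV after a 200 ms −120 mV conditioning pulse. Extracellular pH 7.3 with 20 mM TEA-Cl, CsF-based pipette solution, 0.1% BSA; IC50 from four-parameter Hill fit.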

[2] = molecular target: T2, hNaV1.3 (Homo sapiens, UniProt Q9NY46); assay: Automated whole-cell patch-clamp (QPatch 16X), hNaV1.3; settings: HEK293 cells expressing hNaV1.3 + β1 subunit; QPatch 16X; holding −80 mV, step to 0 mV; peptide incubated 2 min; 0.1% BSA; mean, SEM and n (3-12)
T2 construct: host or cells: HEK293
Method in brief: as §1

[3] = molecular target: T3, hNaV1.7 (Homo sapiens, UniProt Q15858); assay: Automated whole-cell patch-clamp (QPatch 16X), hNaV1.7; settings: for IC50: HEK293 cells expressing hNaV1.7 + β1 subunit, QPatch 16X, holding −80 mV, step to 0 mV, peptide incubated 2 min, 0.1% BSA, mean, SEM and n (3-9); for Loss (reduction) in potency vs rSsp1a at hNaV1.7: relative to wild type rSsp1a
T3 construct: host or cells: HEK293
Method in brief: as §1

T3 sequence (Q15858 whole entry): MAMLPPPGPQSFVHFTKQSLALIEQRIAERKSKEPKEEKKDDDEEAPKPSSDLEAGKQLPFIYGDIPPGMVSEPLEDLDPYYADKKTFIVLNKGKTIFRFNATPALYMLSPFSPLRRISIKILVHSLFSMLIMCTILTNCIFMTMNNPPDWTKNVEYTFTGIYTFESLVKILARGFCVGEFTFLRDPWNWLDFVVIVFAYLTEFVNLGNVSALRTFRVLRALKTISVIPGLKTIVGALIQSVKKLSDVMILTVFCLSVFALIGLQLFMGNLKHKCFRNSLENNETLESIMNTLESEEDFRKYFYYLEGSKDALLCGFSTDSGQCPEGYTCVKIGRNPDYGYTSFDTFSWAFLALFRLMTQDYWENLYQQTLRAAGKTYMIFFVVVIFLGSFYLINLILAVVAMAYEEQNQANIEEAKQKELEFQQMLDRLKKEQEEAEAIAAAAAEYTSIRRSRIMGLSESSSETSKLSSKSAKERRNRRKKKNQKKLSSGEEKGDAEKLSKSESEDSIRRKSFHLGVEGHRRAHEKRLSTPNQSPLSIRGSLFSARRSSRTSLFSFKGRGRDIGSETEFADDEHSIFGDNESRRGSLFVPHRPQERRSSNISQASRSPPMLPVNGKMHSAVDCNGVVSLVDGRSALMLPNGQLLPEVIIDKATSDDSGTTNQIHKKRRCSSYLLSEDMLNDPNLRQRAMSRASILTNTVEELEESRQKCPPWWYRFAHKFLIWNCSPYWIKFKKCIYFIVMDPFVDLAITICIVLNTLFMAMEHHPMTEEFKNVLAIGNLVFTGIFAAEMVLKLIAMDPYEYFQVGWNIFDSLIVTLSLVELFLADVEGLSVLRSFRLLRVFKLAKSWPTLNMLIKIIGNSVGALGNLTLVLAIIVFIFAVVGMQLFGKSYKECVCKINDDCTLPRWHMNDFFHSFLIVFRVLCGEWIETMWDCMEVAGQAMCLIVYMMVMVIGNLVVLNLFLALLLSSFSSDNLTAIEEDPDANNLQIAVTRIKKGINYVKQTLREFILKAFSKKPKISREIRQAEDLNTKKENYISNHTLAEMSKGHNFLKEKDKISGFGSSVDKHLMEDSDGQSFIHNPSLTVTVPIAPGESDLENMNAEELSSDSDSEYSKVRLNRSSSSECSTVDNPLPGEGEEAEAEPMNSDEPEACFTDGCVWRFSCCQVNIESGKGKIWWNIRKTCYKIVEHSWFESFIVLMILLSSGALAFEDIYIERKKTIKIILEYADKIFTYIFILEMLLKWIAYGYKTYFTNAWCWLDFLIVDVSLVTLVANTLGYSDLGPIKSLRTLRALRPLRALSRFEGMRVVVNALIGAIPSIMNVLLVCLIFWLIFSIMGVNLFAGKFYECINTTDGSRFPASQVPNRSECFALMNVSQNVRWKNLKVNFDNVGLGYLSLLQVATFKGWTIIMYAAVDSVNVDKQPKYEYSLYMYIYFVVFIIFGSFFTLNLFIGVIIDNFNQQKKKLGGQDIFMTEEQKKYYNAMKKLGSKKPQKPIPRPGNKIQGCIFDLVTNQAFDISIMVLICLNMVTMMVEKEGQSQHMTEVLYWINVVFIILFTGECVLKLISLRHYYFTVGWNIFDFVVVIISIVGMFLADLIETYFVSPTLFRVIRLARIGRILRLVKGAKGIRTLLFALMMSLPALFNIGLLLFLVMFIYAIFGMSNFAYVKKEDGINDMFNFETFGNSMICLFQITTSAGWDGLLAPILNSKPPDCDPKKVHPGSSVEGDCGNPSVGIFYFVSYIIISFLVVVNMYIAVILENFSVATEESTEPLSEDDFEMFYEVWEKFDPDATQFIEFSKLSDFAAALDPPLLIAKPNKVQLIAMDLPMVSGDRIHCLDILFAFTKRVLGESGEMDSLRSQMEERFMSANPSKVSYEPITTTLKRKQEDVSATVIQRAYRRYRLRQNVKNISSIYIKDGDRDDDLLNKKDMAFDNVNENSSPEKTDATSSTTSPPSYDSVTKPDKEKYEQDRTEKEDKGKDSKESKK
T3 sequence (Q07699 19-218, further chain): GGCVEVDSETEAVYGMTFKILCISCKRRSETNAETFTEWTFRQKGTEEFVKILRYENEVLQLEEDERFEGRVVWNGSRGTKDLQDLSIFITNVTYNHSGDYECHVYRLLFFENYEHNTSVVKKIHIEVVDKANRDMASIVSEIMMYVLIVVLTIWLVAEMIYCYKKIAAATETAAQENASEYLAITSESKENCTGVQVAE
T2 sequence (Q9NY46 whole entry): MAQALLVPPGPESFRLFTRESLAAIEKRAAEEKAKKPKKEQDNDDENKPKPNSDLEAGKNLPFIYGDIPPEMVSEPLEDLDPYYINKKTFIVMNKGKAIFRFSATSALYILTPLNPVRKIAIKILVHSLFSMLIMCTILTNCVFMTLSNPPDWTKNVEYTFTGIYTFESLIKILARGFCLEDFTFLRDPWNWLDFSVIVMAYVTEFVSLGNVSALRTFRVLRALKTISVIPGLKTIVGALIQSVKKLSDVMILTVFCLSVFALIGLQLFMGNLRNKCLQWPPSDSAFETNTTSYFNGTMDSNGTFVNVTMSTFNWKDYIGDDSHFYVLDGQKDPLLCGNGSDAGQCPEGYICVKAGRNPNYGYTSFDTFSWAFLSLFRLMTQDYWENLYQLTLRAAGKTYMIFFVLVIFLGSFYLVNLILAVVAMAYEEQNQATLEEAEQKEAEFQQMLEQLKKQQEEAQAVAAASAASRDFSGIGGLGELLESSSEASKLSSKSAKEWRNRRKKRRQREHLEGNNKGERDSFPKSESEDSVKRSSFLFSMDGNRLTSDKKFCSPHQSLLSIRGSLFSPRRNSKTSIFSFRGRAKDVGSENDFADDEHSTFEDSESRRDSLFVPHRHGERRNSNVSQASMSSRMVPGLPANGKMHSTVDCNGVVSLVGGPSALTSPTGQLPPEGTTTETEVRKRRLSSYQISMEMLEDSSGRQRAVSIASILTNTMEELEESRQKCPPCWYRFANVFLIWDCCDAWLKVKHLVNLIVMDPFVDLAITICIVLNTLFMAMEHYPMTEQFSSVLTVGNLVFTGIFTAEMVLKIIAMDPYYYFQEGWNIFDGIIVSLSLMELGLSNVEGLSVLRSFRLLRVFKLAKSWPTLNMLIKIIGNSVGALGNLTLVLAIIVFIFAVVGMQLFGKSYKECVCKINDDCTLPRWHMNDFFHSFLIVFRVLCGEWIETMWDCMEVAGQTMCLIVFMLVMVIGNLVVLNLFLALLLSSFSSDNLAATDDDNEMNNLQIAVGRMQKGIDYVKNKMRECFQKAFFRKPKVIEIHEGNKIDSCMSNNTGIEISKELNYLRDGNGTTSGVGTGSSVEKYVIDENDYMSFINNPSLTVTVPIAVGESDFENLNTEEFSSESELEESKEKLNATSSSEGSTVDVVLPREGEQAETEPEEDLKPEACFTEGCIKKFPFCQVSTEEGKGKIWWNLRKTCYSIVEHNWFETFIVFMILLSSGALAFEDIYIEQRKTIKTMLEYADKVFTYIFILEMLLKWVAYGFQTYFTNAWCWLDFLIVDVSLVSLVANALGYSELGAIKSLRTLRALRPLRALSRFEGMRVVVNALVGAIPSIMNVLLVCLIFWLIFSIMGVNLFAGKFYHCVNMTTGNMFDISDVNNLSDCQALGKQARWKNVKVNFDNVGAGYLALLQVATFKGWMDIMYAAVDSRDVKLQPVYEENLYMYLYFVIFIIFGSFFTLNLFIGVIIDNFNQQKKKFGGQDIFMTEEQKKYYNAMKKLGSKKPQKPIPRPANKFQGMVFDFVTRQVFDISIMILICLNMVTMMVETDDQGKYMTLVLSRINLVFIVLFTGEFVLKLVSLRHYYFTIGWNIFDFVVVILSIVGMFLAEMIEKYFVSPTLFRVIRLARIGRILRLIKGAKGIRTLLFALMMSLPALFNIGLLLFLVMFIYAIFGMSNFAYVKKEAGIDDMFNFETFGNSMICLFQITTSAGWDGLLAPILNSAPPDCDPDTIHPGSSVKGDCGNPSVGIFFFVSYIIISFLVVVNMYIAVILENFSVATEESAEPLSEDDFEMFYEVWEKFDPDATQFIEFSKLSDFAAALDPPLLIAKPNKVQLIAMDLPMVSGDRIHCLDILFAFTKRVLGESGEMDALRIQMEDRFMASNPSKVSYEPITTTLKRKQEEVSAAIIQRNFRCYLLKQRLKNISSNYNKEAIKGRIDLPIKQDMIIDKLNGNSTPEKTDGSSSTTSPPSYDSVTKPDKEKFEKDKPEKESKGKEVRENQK
T2 sequence (Q07699 19-218, further chain): as the sequence (Q07699 19-218, further chain) above

CC(C)C[C@H](NC(=O)[C@H](CC(=O)O)NC(=O)[C@H](Cc1ccc(O)cc1)NC(=O)[C@H](CCCNC(=N)N)NC(=O)[C@@H]1CSSC[C@@H]2NC(=O)[C@H](CCCCN)NC(=O)[C@H](CC(N)=O)NC(=O)[C@H](CC(N)=O)NC(=O)[C@H](CC(N)=O)NC(=O)[C@@H]3CCCN3C(=O)[C@H](CC(=O)O)NC(=O)[C@@H]3CSSC[C@H](NC(=O)[C@H](C(C)C)NC(=O)[C@H](Cc4ccc(O)cc4)NC(=O)CNC(=O)[C@H](CCC(=O)O)NC(=O)[C@H](CSSC[C@H](NC(=O)[C@H](CC(=O)O)NC(=O)CN)C(=O)N[C@@H](CC(C)C)C(=O)NCC(=O)N[C@@H](Cc4c[nH]c5ccccc45)C(=O)N[C@@H](Cc4ccccc4)C(=O)N[C@@H](CO)C(=O)NCC(=O)N3)NC2=O)C(=O)N[C@@H](Cc2c[nH]cn2)C(=O)N[C@@H](Cc2c[nH]c3ccccc23)C(=O)N[C@@H](CCCCN)C(=O)N[C@@H](Cc2ccc(O)cc2)C(=O)N[C@@H](CCCNC(=N)N)C(=O)N[C@@H](Cc2c[nH]c3ccccc23)C(=O)N1)C(=O)O [P27R]
IC50 [1]: 77 nM
hNaV1.2-selectivity against hNaV1.3 ([1]; ratio of potencies hNaV1.3 / hNaV1.2): > 10 fold
IC50 [2]: > 1000 nM
IC50 [3]: 141 nM

CC(C)C[C@H](NC(=O)[C@H](CC(=O)O)NC(=O)[C@H](Cc1ccc(O)cc1)NC(=O)[C@H](C)NC(=O)[C@@H]1CSSC[C@@H]2NC(=O)[C@H](CCCCN)NC(=O)[C@H](CC(N)=O)NC(=O)[C@H](CC(N)=O)NC(=O)[C@H](CC(N)=O)NC(=O)[C@@H]3CCCN3C(=O)[C@H](CC(=O)O)NC(=O)[C@@H]3CSSC[C@H](NC(=O)[C@H](C(C)C)NC(=O)[C@H](Cc4ccc(O)cc4)NC(=O)CNC(=O)[C@H](CCC(=O)O)NC(=O)[C@H](CSSC[C@H](NC(=O)[C@H](CC(=O)O)NC(=O)CN)C(=O)N[C@@H](CC(C)C)C(=O)NCC(=O)N[C@@H](Cc4c[nH]c5ccccc45)C(=O)N[C@@H](Cc4ccccc4)C(=O)N[C@@H](CO)C(=O)NCC(=O)N3)NC2=O)C(=O)N[C@@H](Cc2c[nH]cn2)C(=O)N[C@@H](Cc2c[nH]c3ccccc23)C(=O)N[C@@H](CCCCN)C(=O)N[C@@H](Cc2ccc(O)cc2)C(=O)N2CCC[C@H]2C(=O)N[C@@H](Cc2c[nH]c3ccccc23)C(=O)N1)C(=O)O [R30A] (H-GDCLGWFSGCDPNNNKCCEGYVCHWKYPWCAYDL-OH; disulfide 3-18, 10-23, 17-30 (inferred); N-terminus and C-terminus assumed)
IC50 [1]: > 1000 nM
Loss (reduction) in potency vs rSsp1a at hNaV1.2 [1]: ≥ 10 fold
IC50 [2]: > 1000 nM
IC50 [3]: > 1000 nM
Loss (reduction) in potency vs rSsp1a at hNaV1.7 [3]: ≥ 10 fold

CC(C)C[C@H](NC(=O)[C@H](CC(=O)O)NC(=O)[C@H](Cc1ccc(O)cc1)NC(=O)[C@H](CCCNC(=N)N)NC(=O)[C@@H]1CSSC[C@@H]2NC(=O)[C@H](CCCCN)NC(=O)[C@H](CC(N)=O)NC(=O)[C@H](CC(N)=O)NC(=O)[C@H](CC(N)=O)NC(=O)[C@@H]3CCCN3C(=O)[C@H](CC(=O)O)NC(=O)[C@@H]3CSSC[C@H](NC(=O)[C@H](C(C)C)NC(=O)[C@H](Cc4ccc(O)cc4)NC(=O)CNC(=O)[C@H](CCC(=O)O)NC(=O)[C@H](CSSC[C@H](NC(=O)[C@H](CC(=O)O)NC(=O)CN)C(=O)N[C@@H](CC(C)C)C(=O)NCC(=O)N[C@@H](Cc4c[nH]c5ccccc45)C(=O)N[C@@H](Cc4ccccc4)C(=O)N[C@@H](CCCCN)C(=O)NCC(=O)N3)NC2=O)C(=O)N[C@@H](Cc2c[nH]cn2)C(=O)N[C@@H](Cc2c[nH]c3ccccc23)C(=O)N[C@@H](CCCCN)C(=O)N[C@@H](Cc2ccc(O)cc2)C(=O)N2CCC[C@H]2C(=O)N[C@@H](Cc2ccccc2)C(=O)N1)C(=O)O [S7K/W28F] (H-GDCLGWFKGCDPNNNKCCEGYVCHWKYPFCRYDL-OH; disulfide 3-18, 10-23, 17-30)
IC50 [1]: > 3000 nM
IC50 [2]: > 3000 nM
IC50 [3]: 1470 nM

CC(C)C[C@H](NC(=O)[C@H](CC(=O)O)NC(=O)[C@H](Cc1ccc(O)cc1)NC(=O)[C@H](CCCNC(=N)N)NC(=O)[C@@H]1CSSC[C@@H]2NC(=O)[C@H](CCCCN)NC(=O)[C@H](CC(N)=O)NC(=O)[C@H](CC(N)=O)NC(=O)[C@H](CC(N)=O)NC(=O)[C@@H]3CCCN3C(=O)[C@H](CC(=O)O)NC(=O)[C@@H]3CSSC[C@H](NC(=O)[C@H](C(C)C)NC(=O)[C@H](Cc4ccc(O)cc4)NC(=O)CNC(=O)[C@H](CCC(=O)O)NC(=O)[C@H](CSSC[C@H](NC(=O)[C@H](CC(=O)O)NC(=O)CN)C(=O)N[C@@H](CC(C)C)C(=O)NCC(=O)N[C@@H](Cc4c[nH]c5ccccc45)C(=O)N[C@@H](Cc4ccccc4)C(=O)N[C@@H](CCCCN)C(=O)NCC(=O)N3)NC2=O)C(=O)N[C@@H](Cc2c[nH]cn2)C(=O)N[C@@H](Cc2c[nH]c3ccccc23)C(=O)N[C@@H](CCCCN)C(=O)N[C@@H](Cc2ccc(O)cc2)C(=O)N2CCC[C@H]2C(=O)N[C@@H](Cc2c[nH]c3ccccc23)C(=O)N1)C(=O)O [S7K]
IC50 [1]: 201 nM
IC50 [2]: 929 nM
IC50 [3]: 181 nM

CC(C)C[C@H](NC(=O)[C@H](CC(=O)O)NC(=O)[C@H](Cc1ccc(O)cc1)NC(=O)[C@H](CCCNC(=N)N)NC(=O)[C@@H]1CSSC[C@@H]2NC(=O)[C@H](CCCCN)NC(=O)[C@H](CC(N)=O)NC(=O)[C@H](CC(N)=O)NC(=O)[C@H](CC(N)=O)NC(=O)[C@@H]3CCCN3C(=O)[C@H](CC(=O)O)NC(=O)[C@@H]3CSSC[C@H](NC(=O)[C@H](C(C)C)NC(=O)[C@H](Cc4ccc(O)cc4)NC(=O)CNC(=O)[C@H](CCC(=O)O)NC(=O)[C@H](CSSC[C@H](NC(=O)[C@H](CC(=O)O)NC(=O)CN)C(=O)N[C@@H](CC(C)C)C(=O)NCC(=O)N[C@@H](Cc4c[nH]c5ccccc45)C(=O)N[C@@H](Cc4ccccc4)C(=O)N[C@@H](CCCNC(=N)N)C(=O)NCC(=O)N3)NC2=O)C(=O)N[C@@H](Cc2c[nH]cn2)C(=O)N[C@@H](Cc2c[nH]c3ccccc23)C(=O)N[C@@H](CCCCN)C(=O)N[C@@H](Cc2ccc(O)cc2)C(=O)N2CCC[C@H]2C(=O)N[C@@H](Cc2c[nH]c3ccccc23)C(=O)N1)C(=O)O [S7R]
IC50 [1]: 153 nM
IC50 [2]: 333 nM
IC50 [3]: 94 nM

CC(C)C[C@H](NC(=O)[C@H](CC(=O)O)NC(=O)[C@H](Cc1ccc(O)cc1)NC(=O)[C@H](CCCNC(=N)N)NC(=O)[C@@H]1CSSC[C@@H]2NC(=O)[C@H](CCCCN)NC(=O)[C@H](CC(N)=O)NC(=O)[C@H](CC(N)=O)NC(=O)[C@H](CC(N)=O)NC(=O)[C@@H]3CCCN3C(=O)[C@H](CC(=O)O)NC(=O)[C@@H]3CSSC[C@H](NC(=O)[C@H](C(C)C)NC(=O)[C@H](Cc4ccc(O)cc4)NC(=O)CNC(=O)[C@H](CCC(=O)O)NC(=O)[C@H](CSSC[C@H](NC(=O)[C@H](CC(=O)O)NC(=O)CN)C(=O)N[C@@H](CC(C)C)C(=O)NCC(=O)N[C@@H](C)C(=O)N[C@@H](Cc4ccccc4)C(=O)N[C@@H](CO)C(=O)NCC(=O)N3)NC2=O)C(=O)N[C@@H](Cc2c[nH]cn2)C(=O)N[C@@H](Cc2c[nH]c3ccccc23)C(=O)N[C@@H](CCCCN)C(=O)N[C@@H](Cc2ccc(O)cc2)C(=O)N2CCC[C@H]2C(=O)N[C@@H](Cc2c[nH]c3ccccc23)C(=O)N1)C(=O)O [W5A] (H-GDCLGAFSGCDPNNNKCCEGYVCHWKYPWCRYDL-OH; disulfide 3-18, 10-23, 17-30 (inferred); N-terminus and C-terminus assumed)
IC50 [1]: > 1000 nM
Loss (reduction) in potency vs rSsp1a at hNaV1.2 [1]: ≥ 10 fold
IC50 [2]: > 1000 nM
IC50 [3]: > 1000 nM
Loss (reduction) in potency vs rSsp1a at hNaV1.7 [3]: ≥ 10 fold

CC(C)C[C@H](NC(=O)[C@H](CC(=O)O)NC(=O)[C@H](Cc1ccc(O)cc1)NC(=O)[C@H](CCCNC(=N)N)NC(=O)[C@@H]1CSSC[C@@H]2NC(=O)[C@H](CCCCN)NC(=O)[C@H](CC(=O)O)NC(=O)[C@H](CC(N)=O)NC(=O)[C@H](CC(N)=O)NC(=O)[C@@H]3CCCN3C(=O)[C@H](CC(=O)O)NC(=O)[C@@H]3CSSC[C@H](NC(=O)[C@H](C(C)C)NC(=O)[C@H](Cc4ccc(O)cc4)NC(=O)CNC(=O)[C@H](CCC(=O)O)NC(=O)[C@H](CSSC[C@H](NC(=O)[C@H](CC(=O)O)NC(=O)CN)C(=O)N[C@@H](CC(C)C)C(=O)NCC(=O)N[C@@H](Cc4ccccc4)C(=O)N[C@@H](Cc4ccccc4)C(=O)N[C@@H](CO)C(=O)NCC(=O)N3)NC2=O)C(=O)N[C@@H](Cc2c[nH]cn2)C(=O)N[C@@H](Cc2c[nH]c3ccccc23)C(=O)N[C@@H](CCCCN)C(=O)N[C@@H](Cc2ccc(O)cc2)C(=O)N2CCC[C@H]2C(=O)N[C@@H](Cc2c[nH]c3ccccc23)C(=O)N1)C(=O)O [W5F/N14D] (H-GDCLGFFSGCDPNNDKCCEGYVCHWKYPWCRYDL-OH; disulfide 3-18, 10-23, 17-30)
IC50 [1]: 735 nM
IC50 [2]: 1200 nM
IC50 [3]: 391 nM

CC(C)C[C@H](NC(=O)[C@H](CC(=O)O)NC(=O)[C@H](Cc1ccc(O)cc1)NC(=O)[C@H](CCCNC(=N)N)NC(=O)[C@@H]1CSSC[C@@H]2NC(=O)[C@H](CCCCN)NC(=O)[C@H](CC(N)=O)NC(=O)[C@H](CC(N)=O)NC(=O)[C@H](CC(N)=O)NC(=O)[C@@H]3CCCN3C(=O)[C@H](CC(=O)O)NC(=O)[C@@H]3CSSC[C@H](NC(=O)[C@H](C(C)C)NC(=O)[C@H](Cc4ccc(O)cc4)NC(=O)CNC(=O)[C@H](CCC(=O)O)NC(=O)[C@H](CSSC[C@H](NC(=O)[C@H](CC(=O)O)NC(=O)CN)C(=O)N[C@@H](CC(C)C)C(=O)NCC(=O)N[C@@H](Cc4ccccc4)C(=O)N[C@@H](Cc4ccccc4)C(=O)N[C@@H](CO)C(=O)NCC(=O)N3)NC2=O)C(=O)N[C@@H](Cc2c[nH]cn2)C(=O)N[C@@H](Cc2c[nH]c3ccccc23)C(=O)N[C@@H](CCCCN)C(=O)N[C@@H](Cc2ccc(O)cc2)C(=O)N2CCC[C@H]2C(=O)N[C@@H](Cc2c[nH]c3ccccc23)C(=O)N1)C(=O)O [W5F]
IC50 [1]: 579 nM
IC50 [2]: > 3000 nM
IC50 [3]: 1260 nM
